Measured values reported in patent publication US11911361B2, “Stable cannabinoid formulations” (priority 2014, dated 2024).

What was measured:
[1] = Pharmacokinetic food-effect study, single 20 mg/kg dose, healthy subjects (Example 17); conditions: human, in vivo, po, 20 mg/kg, cannabidiol, 20 mg/kg oral, least squares geometric mean; for AUC(0-t): ln(AUC0-t) Geometric Mean; for Cmax: ln(Cmax) Geometric Mean
Procedure: An open label, randomized, single-dose, two-period, two-way crossover food-effect study was conducted on healthy subjects. […] Twenty-four (24) subjects were enrolled in the study and each were subjected to the fasted and fed treatment arms in separate periods followed by a 7-day wash-out period. For pharmacokinetic analysis, nominal time and default lambda-z selections were used. All below quantifiable limit values were set to zero and all subjects were included in the analysis.
Data from 13 subjects from the fasted treatment and 24 subject from the fed treatment were included in the pharmacokinetic and statistical analyses.

[2] = test system: maximal electroshock-induced seizures; assay: Maximal electroshock test (MES), mice; conditions: for MES N/F (animals protected/tested): mice
[3] = Long-term safety study in pediatric patients with refractory epilepsy; conditions: human, in vivo, oral, 48 week
Source text: This was a long-term, open-label, 48-week study for pediatric subjects aged 1 year to 17 years with refractory epilepsy.
The study included 5 subjects aged 1 to <2 years (infants); 9 subjects aged 2 to <12 years (children), with ≥3 subjects under the age of 6 years; 6 subjects aged 12 to ≤17 years (adolescents), with ≥3 subjects under the age of 16 years.

U87 cells = assay: Orthotopic mouse model of glioblastoma multiforme, U87 cells
[4] = test system: maximal electroshock-induced seizures; assay: Maximal electroshock test (MES), rats; conditions: Anticonvulsant Screening
[5] = Minimal motor impairment (rotorod) toxicity test (TOX), mice; conditions: in vivo

Work on `C=C(C)[C@@H]1CCC(C)=C[C@H]1c1c(O)cc(CCCCC)cc1O` [cannabidiol, (−)-trans-2-p-mentha-1,8-dien-3-yl-5-pentylresorcinol] yielded an AUC(0-inf) ([1]; ln(AUC0-inf) Geometric Mean, Fed, period removed from model) of 9580 ng·h/mL, an AUC(0-t) ([1]; Fasted) of 669 ng·h/mL and an AUC(0-t) ([1]; Fed) of 9210 ng·h/mL. The Cmax ([1]; Fasted) was 44.5 ng/mL, the Cmax ([1]; Fed) was 1390 ng/mL and the “MES N/F (animals protected/tested)” value ([2]; Anticonvulsant Screening, intraperitoneal, 10 mg/kg, 0.5 h, ethanol:polyethoxylated castor oil:PBS) was 0/4. The “MES N/F (animals protected/tested)” value ([2]; Anticonvulsant Screening, intraperitoneal, 10 mg/kg, 0.5 h, methylcellulose) was 0/4, the “MES N/F (animals protected/tested)” value ([2]; Anticonvulsant Screening, intraperitoneal, 10 mg/kg, 1.0 h, ethanol:polyethoxylated castor oil:PBS) was 0/4 and the “MES N/F (animals protected/tested)” value ([2]; Anticonvulsant Screening, intraperitoneal, 10 mg/kg, 1.0 h, methylcellulose) was 0/4. For the same molecule, the “MES N/F (animals protected/tested)” value ([2]; Anticonvulsant Screening, intraperitoneal, 10 mg/kg, 2.0 h, ethanol:polyethoxylated castor oil:PBS) was 0/4, the “MES N/F (animals protected/tested)” value ([2]; Anticonvulsant Screening, intraperitoneal, 10 mg/kg, 2.0 h, methylcellulose) was 0/4 and the “MES N/F (animals protected/tested)” value ([2]; Anticonvulsant Screening, intraperitoneal, 30 mg/kg, 0.5 h, ethanol:polyethoxylated castor oil:PBS) was 0/4. The “MES N/F (animals protected/tested)” value ([2]; Anticonvulsant Screening, intraperitoneal, 30 mg/kg, 0.5 h, methylcellulose) was 0/4, the “MES N/F (animals protected/tested)” value ([2]; Anticonvulsant Screening, intraperitoneal, 30 mg/kg, 1.0 h, ethanol:polyethoxylated castor oil:PBS) was 1/4 and the “MES N/F (animals protected/tested)” value ([2]; Anticonvulsant Screening, intraperitoneal, 30 mg/kg, 1.0 h, methylcellulose) was 0/4. For the same molecule, the “MES N/F (animals protected/tested)” value ([2]; Anticonvulsant Screening, intraperitoneal, 30 mg/kg, 2.0 h, ethanol:polyethoxylated castor oil:PBS) was 0/4, the “MES N/F (animals protected/tested)” value ([2]; Anticonvulsant Screening, intraperitoneal, 30 mg/kg, 2.0 h, methylcellulose) was 0/4 and the “MES N/F (animals protected/tested)” value ([2]; Anticonvulsant Screening, intraperitoneal, 100 mg/kg, 0.5 h, ethanol:polyethoxylated castor oil:PBS) was 0/4. For the same molecule, the “MES N/F (animals protected/tested)” value ([2]; Anticonvulsant Screening, intraperitoneal, 100 mg/kg, 0.5 h, methylcellulose) was 0/4, the “MES N/F (animals protected/tested)” value ([2]; Anticonvulsant Screening, intraperitoneal, 100 mg/kg, 1.0 h, ethanol:polyethoxylated castor oil:PBS) was 2/4 and the “MES N/F (animals protected/tested)” value ([2]; Anticonvulsant Screening, intraperitoneal, 100 mg/kg, 1.0 h, methylcellulose) was 1/4. The “MES N/F (animals protected/tested)” value ([2]; Anticonvulsant Screening, intraperitoneal, 100 mg/kg, 2.0 h, ethanol:polyethoxylated castor oil:PBS) was 1/4, the “MES N/F (animals protected/tested)” value ([2]; Anticonvulsant Screening, intraperitoneal, 100 mg/kg, 2.0 h, methylcellulose) was 2/4 and the “MES N/F (animals protected/tested)” value ([2]; ED50 Biological Response (Table 57), 200 mg/kg, 2 h, methylcellulose) was 5/8. The “MES N/F (animals protected/tested)” value ([2]; ED50 Biological Response (Table 57), 250 mg/kg, 2 h, methylcellulose) was 4/8, the “MES N/F (animals protected/tested)” value ([2]; ED50 Biological Response (Table 57), 350 mg/kg, 2 h, methylcellulose) was 3/8 and the “MES N/F (animals protected/tested)” value ([2]; ED50 Biological Response (Table 57), 400 mg/kg, 2 h, methylcellulose) was 3/8. The “MES N/F (animals protected/tested)” value ([2]; ED50 Biological Response (Table 57), 450 mg/kg, 2 h, methylcellulose) was 6/8, the “MES N/F (animals protected/tested)” value ([2]; ED50 Biological Response (Table 57), 500 mg/kg, 2 h, methylcellulose) was 8/8 and the “MES N/F (animals protected/tested)” value ([2]; ED50 Biological Response (Table 59), 75 mg/kg, 2 h, ethanol:polyethoxylated castor oil:PBS) was 1/8. The “MES N/F (animals protected/tested)” value ([2]; ED50 Biological Response (Table 59), 95 mg/kg, 2 h, ethanol:polyethoxylated castor oil:PBS) was 5/8, the “MES N/F (animals protected/tested)” value ([2]; ED50 Biological Response (Table 59), 120 mg/kg, 2 h, ethanol:polyethoxylated castor oil:PBS) was 7/8 and the “MES N/F (animals protected/tested)” value ([2]; ED50 Biological Response (Table 59), 150 mg/kg, 2 h, ethanol:polyethoxylated castor oil:PBS) was 8/8. The ED50 ([2]; Mus musculus) was 92.2 mg/kg, the “MES N/F (animals protected/tested)” value ([2]; Tables 57/58, 300 mg/kg, 2 h, methylcellulose) was 4/8 and the “MES N/F (animals protected/tested)” value ([2]; Time to Peak Effect (Table 58), 300 mg/kg, 0.25 h, methylcellulose) was 0/4. For the same molecule, the “MES N/F (animals protected/tested)” value ([2]; Time to Peak Effect (Table 58), 300 mg/kg, 0.5 h, methylcellulose) was 1/4, the “MES N/F (animals protected/tested)” value ([2]; Time to Peak Effect (Table 58), 300 mg/kg, 1 h, methylcellulose) was 1/4 and the “MES N/F (animals protected/tested)” value ([2]; Time to Peak Effect (Table 58), 300 mg/kg, 4 h, methylcellulose) was 2/4. The ED50 ([2]; methylcellulose solvent) was “could not be calculated”, the “animals protected / tested” value ([2]; methylcellulose solvent, 0.5 hr) was “¼” and the “animals protected / tested” value ([2]; methylcellulose solvent, 1 hr) was “¼”. For the same molecule, the “animals protected / tested” value ([2]; methylcellulose solvent, 2 hr) was 4/8, the “animals protected / tested” value ([2]; methylcellulose solvent, 4 hr) was 2/4 and the “subjects with somnolence related to the CBD” value [3] was 7.7%. The “subjects with weight increase related to the CBD” value [3] was 7.7%, the “glioblastoma multiforme progression (in words)” value (U87 cells; 15 mg/kg alone, intraperitoneal) was “did not inhibit glioblastoma multiforme progression” and the “effect on antitumor activity of temozolomide (in words)” value (U87 cells; 15 mg/kg with temozolomide 2 mg/kg, intraperitoneal) was “enhanced the antitumor activity of suboptimal doses of temozolomide leading to a significant increase in survival”. For the same molecule, the “full regression of tumors” value (U87 cells; mouse, in vivo) was 20%, the “MES N/F (animals protected/tested)” value ([4]; dose 30, 1.0 h, ethanol:polyethoxylated castor oil:PBS) was 0/4 and the “MES N/F (animals protected/tested)” value ([4]; dose 30, 1.0 h, methylcellulose) was 0/4. For the same molecule, the “MES N/F (animals protected/tested)” value ([4]; dose 30, 2.0 h, ethanol:polyethoxylated castor oil:PBS) was 0/4, the “MES N/F (animals protected/tested)” value ([4]; dose 30, 2.0 h, methylcellulose) was 0/4 and the “MES N/F (animals protected/tested)” value ([4]; dose 30, 4.0 h, ethanol:polyethoxylated castor oil:PBS) was 0/4. The “MES N/F (animals protected/tested)” value ([4]; dose 30, 4.0 h, methylcellulose) was 0/4, the “MES N/F (animals protected/tested)” value ([4]; dose 100, 1.0 h, ethanol:polyethoxylated castor oil:PBS) was 1/4 and the “MES N/F (animals protected/tested)” value ([4]; dose 100, 1.0 h, methylcellulose) was 0/4. For the same molecule, the “MES N/F (animals protected/tested)” value ([4]; dose 100, 2.0 h, ethanol:polyethoxylated castor oil:PBS) was 0/4, the “MES N/F (animals protected/tested)” value ([4]; dose 100, 2.0 h, methylcellulose) was 0/4 and the “MES N/F (animals protected/tested)” value ([4]; dose 100, 4.0 h, ethanol:polyethoxylated castor oil:PBS) was 0/4. For the same molecule, the “MES N/F (animals protected/tested)” value ([4]; dose 100, 4.0 h, methylcellulose) was 0/4, the TD50 at 2 h ([5]; CF1, mouse, TD50, Example 12, 1:1:18 ethanol:polyethoxylated castor oil:PBS solvent) was 262 mg/kg and the TD50 at 0.5 hours ([5]; CF1, mouse, TD50, Example 12, methylcellulose solvent, 0.5 hours post administration) was > 500 mg/kg. For the same molecule, the TD50 at 2 h ([5]; mouse, TD50, Example 13, 1:1:18 ethanol:polyethoxlated castor oil:PBS solvent) was 267 mg/kg and the TD50 at 2 h ([5]; mouse, TD50, Example 13, methylcellulose solvent) was > 500 mg/kg.
